Data published in publication PMC6713424 (Journal of Medicinal Chemistry, 2019).
Entries after “also recorded” stand apart in the source; their conditions may differ.

How the values were obtained:
[1] = test system: NNMT activity (MNA production) in HSC-2 cells; experiment: Cellular MNA levels in HSC-2 cells; type: cell-based, human; conditions: HSC-2, 100 μM, 72 h; same effect in DMSO control
[2] = test system: HSC-2 human oral cancer cells; experiment: MTT cell proliferation assay in HSC-2 cells; type: cell-based; conditions: HSC-2, 1-100 μM, 24, 48 and 72 h

## Nc1ncnc2c1ncn2[C@@H]1O[C@H](CN(CC[C@H](N)C(=O)O)Cc2ccc3ccccc3c2)[C@@H](O)[C@H]1O [Compound 78, (S)-2-Amino-4-((((2R,3S,4R,5R)-5-(6-amino-9H-purin-9-yl)-3,4-dihydroxytetrahydrofuran-2-yl)methyl)(naphthalen-2-ylmethyl)amino)butanoic Acid]
[1]
  cellular MNA production (in words): increase in cellular MNA production
[2]
  effect on cell proliferation (in words): notable decrease in cell proliferation; also recorded: significant inhibitory effect on cell proliferation

## Nc1ncnc2c1ncn2[C@@H]1O[C@H](CN(CCC[C@H](N)C(=O)O)Cc2ccc3ccccc3c2)[C@@H](O)[C@H]1O [Compound 81, (S)-2-Amino-5-((((2R,3S,4R,5R)-5-(6-amino-9H-purin-9-yl)-3,4-dihydroxytetrahydrofuran-2-yl)methyl)(naphthalen-2-ylmethyl)amino)pentanoic Acid]
[2]
  effect on cell proliferation (in words): not significantly inhibited

## NC(=O)c1cccc(CN(CC[C@H](N)C(=O)O)C[C@H]2O[C@@H](n3cnc4c(N)ncnc43)[C@H](O)[C@@H]2O)c1 [Compound 1]
[2]
  effect on cell proliferation (in words): not significantly inhibited
